Literature values as cited in US9586989B1, “Non-toxic skin cancer therapy with copper peptides” (Skin Biology, Inc., priority 2011, dated 2017).

Key:
[1] = test system: 54 human genes overexpressed in patients with aggressive metastatic form of colon cancer; details: for concentration that produced downregulation of "metastatic" genes: Connectivity Map perturbagen search
[2] = test system: Ehrlich ascites cells; details: injection for 12 days; mixture of 8 micrograms ascorbic acid and 8 micrograms copper 2+ complex

O=C1C=C2C=C[C@@H]3C[C@@]2(O1)[C@H]1CCCCN31 [securinine]
concentration that produced downregulation of "metastatic" genes [1]: 18 µM

Gly-L-His-L-Lys [GHK]
concentration that produced downregulation of "metastatic" genes [1]: 1 µM
share of genes in which RNA production was suppressed ([1]; of 54 human genes overexpressed in aggressive metastatic colon cancer, GHK without copper 2+): 70%

copper 2+ complexed to Glycyl-Glycyl-L-Histidine
share of mice that lived for a long time and resisted re-establishment of tumor cells [2]: 40%
share of mice with prolonged life span [2]: 60%
